We go through 4 compounds from patent US8791050B2, “Herbicidal compositions” (priority 1998, dated 2014).

Assay type in all cases: in vivo
Data set [1] deals with Cyperus iria (CYPIR). Description: Herbicidal effect in rice, field trial, Cyperus iria. To be noted: Table 14 field trial, post-emergence 3-leaf stage, scoring 42 days after application, 1500 g of AS/ha. How it is done: (§1) The herbicidal efficacy of the active compounds or active compound mixtures was scored visually using the treated plots in comparison to untreated control plots. The damage and development of all above-ground parts of the plants were recorded. Scoring was carried out using a percentage scale (100% effect=all plants killed; 50% effect=50% of the plants and the green parts of the plants killed; 0% effect=no noticeable effect=like control plot). The scores of in each case 4 plots were averaged.
(§2) If the observed activity values already exceed the formal sum of the values for the trials with the individual applications, they also exceed the expected value according to Colby which is calculated using the following formula and which is likewise considered to be an indication of synergism (cf. S. R. Colby; in Weeds 15 (1967) pp. 20 to 22): E=A+B−(A·B/100)
(§3) Crop plants were grown outdoors on plots under natural outdoor conditions, and seeds or rhizome pieces of typical harmful plants were laid out or the natural weed growth was utilized. Treatment with the compositions according to the invention was carried out after the harmful plants had emerged and the crop plants were, generally, at the 2- to 4-leaf stage; in some cases (as stated), application of individual active compounds or active compound combinations was carried out pre-emergence (cf. Example 1) or as a sequential treatment partly pre-emergence and/or post-emergence.
(§4) After the application, for example 2, 4, 6 and 8 weeks after the application, the effect of the preparations was scored visually by comparison with untreated controls (cf. scoring in Example 1). In the field trial as well, the compositions according to the invention have synergistic herbicidal activity against a broad spectrum of economically important weed grasses and broad-leaved weeds. […] Moreover, the effects in essential phases of the scoring period were above the expected values according to Colby (cf. scoring in Example 1), also indicating synergism. […]

The test system of data set [2] is Amaranthus retroflexus (AMARE). Description: Herbicidal effect in rice, field trial, Amaranthus retroflexus. As for the experimental part:
as §1, §2, §3, §4

In data set [3] the test system is Sesbania exaltata (SEBEX). Description: Herbicidal effect in rice, field trial, Sesbania exaltata. How it is done: as §1, §2
(§5) Crop plants were grown outdoors on plots under natural outdoor conditions, and seeds or rhizome pieces of typical harmful plants were laid out or the natural weed growth was utilized. […]
(§6) After the application, for example 2, 4, 6 and 8 weeks after the application, the effect of the preparations was scored visually by comparison with untreated controls (cf. scoring in Example 1). […]

In data set [4] the test system is rice. Description: Selectivity: damage to rice, field trial. To be noted: post-emergence 2-4-leaf stage, scoring 28 days after application. How it is done:
The damage and development of all above-ground parts of the plants were recorded. […] The scores of in each case 4 plots were averaged.
Crop plants were grown outdoors on plots under natural outdoor conditions, and seeds or rhizome pieces of typical harmful plants were laid out or the natural weed growth was utilized.

In data set [5] the test system is Cyperus difformis (CYPDI). Description: Herbicidal effect in rice, field trial, Cyperus difformis. To be noted: Table 11 field trial, post-emergence 2-4-leaf stage, scoring 28 days after application, 45 g of AS/ha. How it is done: as §1, §2, §5, §6
Data set [6] deals with Ipomoea spp (IPOSS). The data set can be described thus: Herbicidal effect in rice, field trial, Ipomoea spp. To be noted: Table 11 field trial, post-emergence 2-4-leaf stage, scoring 28 days after application, 45 g of AS/ha. As for the experimental part: as §1, §2, §5, §6
Data set [7] has as its system Ipomea hederaceae (IPOHE). The data set can be described thus: Herbicidal effect in rice, field trial, Ipomea hederaceae. To be noted: Table 8 field trial, post-emergence 2-4-leaf stage, scoring 28 days after application, 30 g of AS/ha. As for the experimental part:
as §1, §2, §5, §6

Setting [8] is: Table 1 field trial, post-emergence, scoring 7 days after application, 45 g of AS/ha.

Take `CCN(CC)C(=O)SCc1ccc(Cl)cc1` [(B1.11), thiobencarb]: the “Herbicidal effect (in %) against CYPIR” value in data set [1] was found to be 78%. Moreover, the “Herbicidal effect (in %) against AMARE” value in data set [2] (Table 7 field trial, post-emergence 2-4-leaf stage, scoring 28 days after application, 3000 g of AS/ha) came out at 83%.

For `Cc1nn(-c2cc(CC(Cl)C(=O)O)c(Cl)cc2F)c(=O)n1C(F)F` (stereo not shown) [(B2.2), carfentrazone], the “Herbicidal effect (in %) against SEBEX” value in data set [3] (Table 10 field trial, post-emergence 2-4-leaf stage, scoring 28 days after application, 32 g of AS/ha) came to 93%. Further, in data set [4] (Table 10 field trial, 32 g of AS/ha), the “Damage (in %) to rice” value stood at 13%.

Turning to `COc1cc(OC)nc(Oc2cccc(Oc3nc(OC)cc(OC)n3)c2C(=O)[O-])n1.[Na+]` [(B4.6), bispyribac-Na], the “Herbicidal effect (in %) against CYPDI” value in data set [5] amounted to 75%. Moreover, the “Herbicidal effect (%) against SEBEX” value in data set [3] (setting [8]) was 93%. Besides, the “Herbicidal effect (in %) against IPOSS” value in data set [6] worked out at 91%. Further, the “Herbicidal effect (%) against AMARE” value in data set [2] (setting [8]) turned out to be 93%.

As for `COc1cc(OC)nc(Oc2cccc(Oc3nc(OC)cc(OC)n3)c2C(=O)ON=C(c2ccccc2)c2ccccc2)n1` [(B4.25), pyribenzoxim], in data set [7], the “Herbicidal effect (in %) against IPOHE” value is given as 78%. In data set [4] (Table 8 field trial, 30 g of AS/ha), the “Damage (in %) to rice” value amounted to 0%.
